Measurements published in the NIST ThermoML archive (doi:10.1016/j.fluid.2012.08.023).
± gives the expanded uncertainty stated by the source.

Conditions: Liquid, Closed cell (Static) method

SMILES	vapor or sublimation pressure (268.13 K) [kPa]	vapor or sublimation pressure (278.36 K) [kPa]	vapor or sublimation pressure (288.16 K) [kPa]	vapor or sublimation pressure (298.13 K) [kPa]
FC(F)(F)C(F)(F)C(F)(F)C(F)(F)F [decafluorobutane]	91 ± 12	134.6 ± 12	192.9 ± 12	268.8 ± 12
C=C [ethene]	3648.5 ± 22	4611.2 ± 26	–	–
